Test results taken from publication PMC10135057, “Molecular Modification of Kex2 P1’ Site Enhances Expression and Druggability of Fungal Defensin” (Antibiotics, 2023).
Several values for one entry are separate records, joined by “and”; a condition that tells them apart may be missing. Equal entries are not always repeated.

Assays:
S. aureus ATCC 25923 = assay: microbe, parasite or virus in culture; format: cell-based, Staphylococcus aureus; settings: Staphylococcus aureus, ATCC25923
Procedure: (§1) The minimal inhibitory concentrations (MICs) assay was performed according to the CLSI procedures with the final peptide concentrations of 256, 128, 64, 32, 16, 8, 4, 2, 1, and 0.5 μg/mL, respectively. All tests were conducted in triplicate.

S. aureus CVCC 546 = assay: microbe, parasite or virus in culture; format: cell-based, Staphylococcus aureus; settings: Staphylococcus aureus, CVCC546
Procedure: as §1

S. aureus E48 = assay: microbe, parasite or virus in culture; format: cell-based, Staphylococcus aureus; settings: Staphylococcus aureus, E48
Procedure: as §1

[1] = test system: S. epidermidis ATCC 12228; assay: microbe, parasite or virus in culture; format: cell-based, Staphylococcus epidermidis; settings: Staphylococcus epidermidis, ATCC12228
Procedure: as §1

[2] = test system: Escherichia coli ATCC 25922; assay: microbe, parasite or virus in culture; format: cell-based; settings: Escherichia coli, ATCC25922
Procedure: as §1

[3] = test system: Staphylococcus aureus ATCC 43300; assay: microbe, parasite or virus in culture; format: cell-based; settings: Staphylococcus aureus, ATCC43300
Procedure: as §1

[4] = test system: Pseudomonas aeruginosa CICC 20625; assay: Minimal inhibitory concentration (MIC); format: cell-based; settings: CICC20625, CLSI procedure, triplicate
Procedure: as §1

[5] = test system: Salmonella enterica ATCC 13076; assay: Minimal inhibitory concentration (MIC); format: cell-based; settings: ATCC13076, CLSI procedure, triplicate
Procedure: as §1

S. aureus ATCC 43300 [6] = assay: microbe, parasite or virus in culture; format: cell-based, Staphylococcus aureus
Procedure: The effects of combination were evaluated by calculating the FICI. FICI ≤ 0.5 was defined as synergy, 0.5 < FICI ≤ 1 was defined as additivity, 1 < FICI ≤ 4 was defined as indifference, and FICI > 4 was defined as antagonism.

S. aureus ATCC 43300 [7] = assay: Bactericidal kinetics (time-killing curves); format: cell-based, Staphylococcus aureus; settings: 2× MIC, within 2 h; S. aureus ATCC 43300, 10^6 CFU/mL
Procedure: The S. aureus ATCC 43300 in logarithmic growth stage was diluted to a final concentration of 10^6 CFU/mL. […] Samples were taken at 0, 0.5, 1, 2, 4, 6, 8, 10, 20, and 24 h, serially diluted, and visible colonies were counted on MHA plates.

S. aureus ATCC 43300 [8] = assay: Post-antibiotic effect (PAE); format: cell-based, Staphylococcus aureus; settings: 2× MIC, 2 h exposure, 10^8 CFU/mL S. aureus ATCC 43300, 1000-fold dilution
Description: After the exposed time, the bacteria suspension was reconstructed by dilution to 1000 times with MHB medium to remove the influence of peptides and antibiotics. Samples were taken every hour, and then coated on MHA plate after gradient dilution. The calculation formula was from previous studies.

S. aureus ATCC 43300 [9] = assay: Thermal stability (MIC after heat treatment); format: physicochemical, Staphylococcus aureus; settings: MIC vs S. aureus ATCC 43300, triplicate
Procedure: (§2) The tolerance of FNZ to temperature and pH was evaluated. The stability of FNZ in simulated gastric fluid, artificial intestinal fluid and mouse serum was carried out as previously described. […] All assays were conducted in triplicate.

S. aureus ATCC 43300 [10] = assay: pH stability (MIC after pH treatment); format: physicochemical, Staphylococcus aureus; settings: MIC vs S. aureus ATCC 43300, triplicate
Procedure: as §2

S. aureus ATCC 43300 [11] = assay: Salts stability (MIC after incubation with Na+ or Mg2+); format: cell-based, Staphylococcus aureus; settings: for MIC: read-out: MIC after treatment
S. aureus ATCC 43300 [12] = assay: Stability in simulated gastric fluid (MIC after treatment); format: in vitro ADME, Staphylococcus aureus; settings: 1 h, MIC vs S. aureus ATCC 43300, triplicate
Procedure: as §2

S. aureus ATCC 43300 [13] = assay: Stability in artificial intestinal fluid (MIC after treatment); format: in vitro ADME, Staphylococcus aureus; settings: 10 min, MIC vs S. aureus ATCC 43300, triplicate
Procedure: as §2

S. aureus ATCC 43300 [14] = assay: Stability in mouse serum (MIC after treatment); format: in vitro ADME, Staphylococcus aureus; settings: mouse serum (25%), 1–4 h; MIC vs S. aureus ATCC 43300; triplicate
Procedure: as §2

[15] = 50 mM Mg2+, 37 °C, 1 h, MIC vs S. aureus ATCC 43300, triplicate
[16] = 100 mM Mg2+, 37 °C, 1 h, MIC vs S. aureus ATCC 43300, triplicate
[17] = 100 mM Na+, 37 °C, 1 h, MIC vs S. aureus ATCC 43300, triplicate
[18] = 150 mM Mg2+, 37 °C, 1 h, MIC vs S. aureus ATCC 43300, triplicate
[19] = 150 mM Na+, 37 °C, 1 h, MIC vs S. aureus ATCC 43300, triplicate
[20] = 300 mM Mg2+, 37 °C, 1 h, MIC vs S. aureus ATCC 43300, triplicate
[21] = 300 mM Na+, 37 °C, 1 h, MIC vs S. aureus ATCC 43300, triplicate
[22] = 500 mM Mg2+, 37 °C, 1 h, MIC vs S. aureus ATCC 43300, triplicate
[23] = 500 mM Na+, 37 °C, 1 h, MIC vs S. aureus ATCC 43300, triplicate

## CN[C@H](CC(C)C)C(=O)N[C@H]1C(=O)N[C@@H](CC(N)=O)C(=O)N[C@H]2C(=O)N[C@H]3C(=O)N[C@H](C(=O)N[C@H](C(=O)O)c4cc(O)cc(O)c4-c4cc3ccc4O)[C@H](O)c3ccc(c(Cl)c3)Oc3cc2cc(c3O[C@@H]2O[C@H](CO)[C@@H](O)[C@H](O)[C@H]2O[C@H]2C[C@](C)(N)[C@H](O)[C@H](C)O2)Oc2ccc(cc2Cl)[C@H]1O [Vancomycin, vancomycin]
S. aureus ATCC 25923
  MIC: 4 µg/mL and 2.69 µM
S. aureus CVCC 546
  MIC: 1 µg/mL and 0.67 µM
S. aureus E48
  MIC: 1 µg/mL and 0.67 µM
[1]
  MIC: 1 µg/mL and 0.67 µM
[2]
  MIC: 128 µg/mL and 86 µM
[3]
  MIC: 1 µg/mL and 0.67 µM
[4]
  MIC: > 128 µg/mL and > 86 µM
[5]
  MIC: > 128 µg/mL and > 86 µM
S. aureus ATCC 43300 [6]; Staphylococcus aureus, ATCC43300, 16 h, read-out: MICa (MIC of drug alone)
  MIC: 1 µg/mL
S. aureus ATCC 43300 [6]; checkerboard, S. aureus ATCC 43300
  Combination effect with FNZ (in words): synergistic effect
S. aureus ATCC 43300 [6]; combination FNZ + Van, S. aureus ATCC 43300
  FIC: 0.125
S. aureus ATCC 43300 [6]; combination FNZ + Van, S. aureus ATCC 43300, checkerboard, 37 °C, 16 h
  MICc (MIC of drug used in combination): 0.125 µg/mL
S. aureus ATCC 43300 [6]; combination of FNZ with the named antibiotic, S. aureus ATCC 43300, ≤0.5 synergy, 0.5-1 additivity, 1-4 indifference, >4 antagonism
  FICI (fractional inhibitory concentration index): 0.25 and < 0.5
S. aureus ATCC 43300 [7]
  Decrease of bacterial counts (log10 CFU/mL): 0.216 log10 CFU/mL
S. aureus ATCC 43300 [8]
  PAE: 1.3 h
S. aureus ATCC 43300 [9]; 20 °C for 1 h
  MIC after treatment: 1 μg/mL and 0.67 μM
S. aureus ATCC 43300 [9]; 40 °C for 1 h
  MIC after treatment: 1 μg/mL and 0.67 μM
S. aureus ATCC 43300 [9]; 60 °C for 1 h
  MIC after treatment: 1 μg/mL and 0.67 μM
S. aureus ATCC 43300 [9]; 80 °C for 1 h
  MIC after treatment: 1 μg/mL and 0.67 μM
S. aureus ATCC 43300 [9]; 100 °C for 1 h
  MIC after treatment: 1 μg/mL and 0.67 μM
S. aureus ATCC 43300 [10]; pH 2
  MIC after treatment: 1 μg/mL and 0.67 μM
S. aureus ATCC 43300 [10]; pH 4
  MIC after treatment: 1 μg/mL and 0.67 μM
S. aureus ATCC 43300 [10]; pH 6
  MIC after treatment: 1 μg/mL and 0.67 μM
S. aureus ATCC 43300 [10]; pH 8
  MIC after treatment: 1 μg/mL and 0.67 μM
S. aureus ATCC 43300 [10]; pH 10
  MIC after treatment: 1 μg/mL and 0.67 μM
S. aureus ATCC 43300 [11]; [15]
  MIC after treatment: 1 µg/mL
  MIC: 0.67 µM
S. aureus ATCC 43300 [11]; [16]
  MIC after treatment: 1 µg/mL
  MIC: 0.67 µM
S. aureus ATCC 43300 [11]; [17]
  MIC after treatment: 1 µg/mL
  MIC: 0.67 µM
S. aureus ATCC 43300 [11]; [18]
  MIC after treatment: 1 µg/mL
  MIC: 0.67 µM
S. aureus ATCC 43300 [11]; [19]
  MIC after treatment: 1 µg/mL
  MIC: 0.67 µM
S. aureus ATCC 43300 [11]; [20]
  MIC after treatment: 1 µg/mL
  MIC: 0.67 µM
S. aureus ATCC 43300 [11]; [21]
  MIC after treatment: 1 µg/mL
  MIC: 0.67 µM
S. aureus ATCC 43300 [11]; [22]
  MIC after treatment: 1 µg/mL
  MIC: 0.67 µM
S. aureus ATCC 43300 [11]; [23]
  MIC after treatment: 1 µg/mL
  MIC: 0.67 µM
S. aureus ATCC 43300 [11]; Staphylococcus aureus, ATCC43300, 1 h
  MIC: 1 µg/mL and 0.67 µM
S. aureus ATCC 43300 [12]
  MIC after treatment: 1 μg/mL and 0.67 μM
S. aureus ATCC 43300 [13]
  MIC after treatment: 1 μg/mL and 0.67 μM
S. aureus ATCC 43300 [14]
  MIC after treatment: 1 μg/mL and 0.67 μM
